Measured values published in publication PMC10241580, “Bioassay-Guided Isolation of Antiplasmodial Compounds from Hypericum lanceolatum Lam. (Hypericaceae) and Their Cytotoxicity and Molecular Docking” (BioMed Research International, 2023).
In brackets after ≈: the same amount, converted by molar mass.

Legend:
[1] = In vitro cytotoxicity MTT assay on P388 cell line; assay type: cell-based; settings: mouse, mean ± SD (n = 3)
Protocol: The in vitro study of the cytotoxicity potency of the isolated compounds was performed using the P388 (mouse leukaemia) cell line which was obtained from the American Type Culture Collection (ATCC) (Rockville, MD, USA). The cells were arranged in 96-well plates at a density of 10^4 cells per well containing […] of culture medium and then cultured for 24 h in the opti-MEM medium supplemented with 2 mM glutamine (Gibco, Grand Island, NY, USA), streptomycin (50 μg/mL), penicillin (50 U/mL), and 5% fetal calf serum (Gibco). After the cell cultures were maintained at 37°C in an atmosphere saturated with 5% CO2, the four tested compounds prepared at the concentration of 1 mg/mL by dissolving in the mixture DMSO/culture medium (1 : 9) were diluted in cell culture to reach the required concentrations (ranging from 1 to 100 μg/mL). The in vitro cytotoxic activity of the tested compounds was evaluated using the MTT assay for leukaemia cells.

Plasmodium parasite = system: Plasmodium parasite; parameters: method as in doi:10.1016/j.sajb.2022.11.021; settings: in words; cited from earlier work

Compound	IC50 ([1]; P388 cells) [µg/mL]	IC50 ([1]; P388 leukaemia cells) [µg/mL]	Antiplasmodial potency (Plasmodium parasite)
C=C(C)[C@@H]1CC[C@]2(C(=O)O)CC[C@]3(C)[C@H](CC[C@@H]4[C@@]5(C)CC[C@H](O)C(C)(C)[C@@H]5CC[C@]43C)[C@@H]12 [Compound 3, betulinic acid]	6.8 ± 2.2 (≈ 14.9 µM)		
O=c1c2cc(O)c(O)cc2oc2cc(O)cc(O)c12 [Compound 2, norathyriol]		21.8 ± 0.3 (≈ 83.8 µM)	
C[C@H]1[C@H](C)CC[C@]2(C(=O)O)CC[C@]3(C)C(=CC[C@@H]4[C@@]5(C)CC[C@H](O)C(C)(C)[C@@H]5CC[C@]43C)[C@H]12 [Compound 4, ursolic acid]		2.5 ± 0.6 (≈ 5.47 µM)	weak
O=c1c2ccc(O)cc2oc2cccc(O)c12 [Compound 1, 1,6-dihydroxyxanthone]	17.6 ± 0.7 (≈ 77.1 µM)		
